Laboratory results reported in patent US20100298377A1, “NOVEL SUBSTITUTED INDAZOLES, THE PREPARATION THEREOF AND USE OF SAME IN THERAPEUTICS” (SANOFI-AVENTIS, priority 2007, published 2010).
Read-outs that look alike come from different tables or passages of the source.

Key:
AKT1 = AKT1 (Homo sapiens, UniProt P31749, S473D); assay: Determination of the IC50 for AKT1 (HTRF); format: biochemical; settings: AKT1 without PH domain, activated by PDK1
Procedure: Determination of the IC50 for AKT1
The inhibitory potential of the compounds is evaluated by HTRF, a time-resolved fluorescence technique based on non-radiative energy transfer (FRET). […] This phosphorylation allows the kinase activity of AKT1 to be activated.
Starting with a 10 mM solution of inhibitors, 3 μl are taken and placed in a 96-well polypropylene plate containing 27 μl of 100% DMSO. The various test compounds are diluted in cascade by taking 15 μl of compound, to which are added 30 μl of 100% DMSO.
The various reaction components are added in the following manner:
Next, 10 μl of the inhibitor solution are added. Finally, the reaction is initiated by adding 10 μl of a solution containing both 100 μM of ATP and 10 μM of biotinylated peptide. The sequence of this peptide is as follows: biot-[…] (reference Neosystem SP000560). The plate is then covered with a plastic film, agitated and finally incubated at RT for 30 minutes. […] After incubation overnight at 4° C., the plate is read using an Ultra evolution spectrophotometer from Tecan. […] All the tests are performed in duplicate and the mean of the two tests is calculated.
For each point, a delta F is calculated in the following manner:
(§1) R(Ratio)=counts665 nm/counts620 nm
ΔF % is calculated by the Tecan Ultra Evolution machine.

[1] = target: T1, Human S6K1 (24-421) T412E protein (Homo sapiens, UniProt P23443, T412E); assay: Determination of the IC50 for S6K1 (HTRF substrate phosphorylation test); format: biochemical; settings: S6K1 activated by PDK1, ATP 30 μM
T1 construct: Human S6K1 (24-421) T412E protein; made in house; host or cells: Sf21 insect cells
Procedure: Determination of the IC50 for S6K1
The inhibitory potential of the compounds for S6K1 is evaluated in an enzymatic test of phosphorylation of substrate in HTRF (Homogenous Time-Resolved Fluorescence) format. Human S6K1 (24-421) T412E protein is expressed in sf21 cells and purified by chromatography on a nickel chelate column. It is activated by PDK1.
The test comprises two steps, both performed at RT. The phosphorylation reaction takes place during the first step and the revelation step is performed during the second. […] The final concentrations of compounds thus obtained during the incubation period range from 10 μM to 0.17 nM and the concentration of enzyme is 2 nM. After incubation for 20 minutes, the reaction is stopped and the revelation initiated by addition of 30 μl of a mixture of streptavidin XL 665 Xlent, ref. 611SAXLB Cis bio international, and a europium cryptate-coupled anti-phospho-GSK3 antibody, ref. 64CUSKAZ Cis bio international, dissolved in the revelation buffer (HEPES/NaOH 166.7 mM, EDTA 221.7 mM, KF 667.7 mM, BSA 0.167%, pH 7.0). The reaction takes place in a black half-well plate ref. 3694 Costar.
A mixture of the reaction medium after each addition of reagent is obtained by agitation for a few minutes at 700-1000 rpm on a Heidolph Titramax 100 machine. The reading is taken on a TECAN Ultra Evolution machine after at least one night and up to 3 nights at 4° C. The reading settings are as follows: excitation wavelength 320 nm, emission wavelengths 620 and 665 nm, lag time 150 μs, integration time 500 μs.
For each point, the ΔF % is calculated as follows:
as §1
The IC50 values are calculated by means of the XLfit4 205 equation.

[2] = tested on: MIA PaCa-2 cells (human pancreatic carcinoma cells); assay: Proliferation of MIA PaCa-2 cells, intracellular ATP, CellTiter-Glo test; format: cell-based; settings: 96 hours
Excerpt: (§2) b. Study of the Proliferation of Human Tumoral MIA PaCa-2, C-433, LnCaP and MCF7 Cells via Assay of the Intracellular ATP Using the Celltiter-Glo™ Test
(§3) The kit CellTiter-Glo™ for measuring cell viability via luminescence ([…]) is a homogeneous method for determining the number of viable cells in culture, based on quantification of the ATP present in the cells, and which indicates the presence of metabolically active cells.
(§4) The cell lines used in this test were the following: MIA PaCa-2 cells (human pancreatic carcinoma cells, ATCC, CRL-1420), C-433 cells (human Ewing sarcoma cells, DSMZ, ACC 268), LNCaP clone FGC cells (human prostate carcinoma cells, ATCC, CRL-1740), MCF7 cells (human breast carcinoma cells, ECACC, #86012803). The cells MIAPaCa-2 and LNCaP were cultured in D-MEM culture medium (Invitrogen Gibco, #419656-039) containing 10% foetal calf serum (FCS, Invitrogen Gibco, #10500-064) and 2 mM L-Glutamine (Invitrogen Gibco, #25030-024); the C-433 cells were cultured in MCCoy's 5A culture medium (Invitrogen Gibco, #26600-023)/RPMI 1640 (Invitrogen Gibco, #31870-025) (50/50) containing 10% FCS and 2 mM L-glutamine; the MCF7 cells were cultured in EMEM culture medium (EMEM, Biowhittaker, Lonza, #BE12-662F) containing 10% FCS and 2 mM L-Glutamine.
(§5) Evaluation of the Cell Viability via Luminescence Measurement: Celltiter-Glo™ Test
(§6) On day 1, the cells were inoculated at 1000 (C-433), 2500 (MCF7) and 10000 (LNCaP and MIA PaCa-2) cells per well in black-bottomed 96-well microplates (NUNC fluoronunc, Fisherbioblock 2311K) in 135 μl of whole culture medium and incubated at 37° C., 5% CO2, for 3 to 6 hours. The cells were then incubated with increasing concentrations of molecules diluted in dimethyl sulfoxide (DMSO, Sigma D2650). The molecules were added in a volume of 15 μl of a 10-fold concentrated solution in a final volume of 150 μl, the final percentage of DMSO being 0.1%. The cells were incubated at 37° C., 5% CO2, for 96 hours. After 4 days of treatment with the molecules, the CellTiter-Glo™ was performed by following the manufacturer's instructions (Kit Celltiter-Glo Luminescent, PROMEGA #G7571). Briefly, the cell plates were equilibrated for about 30 minutes at RT and 100 μl per well of Celltiter-Glo reagent were added. The cells were incubated for 1 hour at RT for lysis of the cells and stabilization of the signal. The intracellular ATP was quantified by measuring the luminescence in rlu units (relative luminescence units), 96 hours after initiation of the treatment, using a luminescence counter (Wallac). The tests were performed in six replicates.
(§7) i) the mean±s.e.m. of each series of well replicates was calculated;
(§8) ii) the maximum response is given by positive control wells containing untreated cells; this control was performed in 12 replicates;
(§9) iii) the minimum response is given by cell-free and untreated negative control wells; this control was performed in 6 replicates;
(§10) iv) using these maximum (100%) and minimum (0%) response values, respectively, the data were normalized to give a percentage relative to the maximum response;
(§11) The IC50 values were calculated by […] with the XLfit software (IDBS, UK) using formula 205.

[3] = tested on: LNCaP clone FGC cells (human prostate carcinoma cells); assay: Proliferation of LNCaP cells, intracellular ATP, CellTiter-Glo test; format: cell-based; settings: 96 hours
Excerpt: as §2, §3, §4, §5, §6, §7, §8, §9, §10, §11

[4] = tested on: MEF-IGF1 murine fibroblast cells; assay: IGF1-dependent proliferation of MEF-IGF1 cells via incorporation of [14C]-thymidine; format: cell-based; settings: [14C]-thymidine incorporation, IGF1 stimulated, 72 hours, read-out: IC50 MEF-IGF
Excerpt: a. Study of the IGF1-Dependent Proliferation of MEF-IGF1 Murine Fibroblast Cells Measured via Incorporation of [14C]-Thymidine
This test is based on the incorporation of [^14C]-thymidine into the DNA of the cells for the S phase of the cell cycle during cell division. The cell line used in this test is the MEF/3T3 Tet-Off Clone 18 line obtained by stable transfection of the human receptor IGF1R in murine MEF/3T3 Tet-Off fibroblasts. To measure the IGF1-dependent cell proliferation, the cells were deprived of serum and cultured for 3 days in the serum-free culture medium in the presence of the growth factor IGF1 which stimulates the proliferation of MEF-IGF1 cells.
Test of Incorporation of [^14C]-Thymidine into MEF-IGF1 Cells
On day 1, the cells were inoculated with 7500 cells per well in Cytostar 96-well microplates (Amersham (GE) RPNQ0162) in 200 μl of EMEM medium (EMEM, Biowhittaker, #BE12-662F) containing 10% foetal calf serum (FCS, TET-BD Biosciences Tet System Approved FBS US-Sourced, #8630-1) and 1% PSG (Penicillin-Streptomycin-Glutamine (PSG), Gibco #10378-016), and incubated at 37° C., 5% CO2, for 24 hours. On day 2, the cells were washed in the FCS-free EMEM culture medium containing 1% PSG, and incubated in 170 μl of this serum-free culture medium at 37° C., 5% CO2, for 24 hours. On day 3, the cells were incubated with 10 μl of IGF1 (2 μg/ml of final concentration; recombinant human IGF-1, R & D Systems, #291-G1), 10 μl (0.1 μCi) of [^14C]-Thymidine (NEN NEC-568) plus 10 μl of increasing concentrations of the test molecules, diluted in dimethyl sulfoxide (DMSO, Sigma D2650). The molecules were added in a volume of 10 μl of a 20-fold concentrated solution in a final volume of 200 μl, the final percentage of DMSO being 0.1%. The treated cells were incubated at 37° C., 5% CO2, for 72 hours. The incorporation of [^14C]-Thymidine was quantified in cpm units (counts per minute) by counting the radioactivity 72 hours after the start of the treatment, using a Micro-Beta radioactivity counter (Perkin-Elmer). The tests were performed in duplicate.
as §7
ii) the background noise is calculated by preparing cell-free, IGF1-free and untreated control wells; this control was performed in 4 replicates. The background noise was removed at each measurement;
iii) the maximum response is given by positive control wells containing cells in the presence of IGF1 but untreated; this control was performed in 4 replicates;
iv) the minimum response is given by negative control wells containing IGF1-free and untreated cells; this control was performed in 4 replicates;
as §11

[5] = tested on: C-433 cells (human Ewing sarcoma cells); assay: Proliferation of C-433 cells, intracellular ATP, CellTiter-Glo test; format: cell-based; settings: 96 hours
Excerpt: as §2, §3, §4, §5, §6, §7, §8, §9, §10, §11

[6] = tested on: MCF7 cells (human breast carcinoma cells); assay: Proliferation of MCF7 cells, intracellular ATP, CellTiter-Glo test; format: cell-based; settings: 96 hours
Excerpt: as §2, §3, §4, §5, §6, §7, §8, §9, §10, §11

Sequence of AKT1 (P31749 118-480 S473D limits assumed): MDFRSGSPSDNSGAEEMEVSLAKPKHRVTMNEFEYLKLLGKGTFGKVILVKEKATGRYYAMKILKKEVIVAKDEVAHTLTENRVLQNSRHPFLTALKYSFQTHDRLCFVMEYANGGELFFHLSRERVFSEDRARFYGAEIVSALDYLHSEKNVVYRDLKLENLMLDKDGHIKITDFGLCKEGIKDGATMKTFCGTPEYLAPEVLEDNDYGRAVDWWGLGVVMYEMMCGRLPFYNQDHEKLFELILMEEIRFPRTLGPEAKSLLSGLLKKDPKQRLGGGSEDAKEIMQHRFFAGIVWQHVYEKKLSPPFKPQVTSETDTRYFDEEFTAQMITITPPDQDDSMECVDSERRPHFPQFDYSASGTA
T1 sequence (P23443 24-421 T412E): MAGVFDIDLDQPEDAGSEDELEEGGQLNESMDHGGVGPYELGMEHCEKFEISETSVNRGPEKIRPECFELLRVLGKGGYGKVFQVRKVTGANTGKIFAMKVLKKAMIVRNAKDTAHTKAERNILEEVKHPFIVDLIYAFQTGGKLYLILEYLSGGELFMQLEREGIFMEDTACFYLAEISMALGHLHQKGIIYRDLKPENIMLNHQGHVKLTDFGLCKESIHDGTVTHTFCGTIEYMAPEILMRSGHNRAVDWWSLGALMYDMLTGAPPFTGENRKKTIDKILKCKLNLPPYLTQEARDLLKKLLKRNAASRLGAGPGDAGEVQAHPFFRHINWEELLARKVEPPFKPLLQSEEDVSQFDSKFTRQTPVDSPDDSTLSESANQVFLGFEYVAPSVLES

| Molecule | IC50 (AKT1) [nM] | IC50 [2] [nM] | further results |
| --- | --- | --- | --- |
| CN1CCCCC1C(NC(=O)Nc1cc(F)c2[nH]nc(N)c2c1)c1ccccc1 [Ex 20, 1-(3-Amino-7-fluoro-1H-indazol-5-yl)-3-[(1-methylpiperid-2-yl)(phenyl)methyl]urea((S,2S),(R,2R))] | 100 to 500 | 10000 | – |
| CN1CCCCC1C(NC(=O)Nc1ccc2[nH]nc(CCc3ccccc3)c2c1)c1ccccc1 [Ex 27, 1-[(1-Methylpiperid-2-yl)(phenyl)methyl]-3-[3-(2-phenylethyl)-1H-indazol-5-yl]urea((S,2S),(R,2R))] | 100 to 500 | 1500 to 7000 | – |
| (6-Fluoro-1H-indazol-5-yl)-(S)-(3-chloro-5-fluorophenyl)-(S)-piperid-2-ylmethyl carbamate [Ex 50] | < 100 | – | IC50 [4]: 3160 nM |
| (7-Fluoro-1H-indazol-5-yl)-(S)-(3,4-dichlorophenyl)-(S)-piperid-2-ylmethyl carbamate [Ex 48] | < 100 | – | IC50 [5]: 505 nM; IC50 [6]: 1500 nM; IC50 [3]: 1350 nM; IC50 [4]: 295 nM |

More lines, main results first:

| IC50 (AKT1) [nM] | IC50 [2] [nM] | Molecule | further results |
| --- | --- | --- | --- |
| < 100 | 2900 | O=C(Nc1ccc2[nH]ncc2c1)N[C@H](c1ccc(Cl)c(Cl)c1)[C@H]1CCCCN1 [Ex 6, 1-{(R)-(3,4-Dichlorophenyl)[(2R)-piperid-2-yl]methyl}-3-(1H-indazol-5-yl)urea] | IC50 [1]: 100 to 500 nM |
| < 100 | 9320 | O=C(Nc1ccc2[nH]ncc2c1)N[C@@H](c1cc(Cl)cc(Cl)c1)[C@@H]1CCCCN1 [Ex 7, 1-{(S)-(3,5-Dichlorophenyl)[(2S)-piperid-2-yl]methyl}-3-(1H-indazol-5-yl)urea] | IC50 ([3]; Homo sapiens, LNCaP-Clone-FGC): 5000 nM; IC50 ([4]; Mus musculus, Fibroblast): 280 nM |
| 100 to 500 | 2800 | CN1CCCCC1C(NC(=O)Nc1ccc2[nH]nc(-c3ccccn3)c2c1)c1ccccc1 [Ex 15, 1-[(1-Methylpiperid-2-yl)(phenyl)methyl]-3-(3-pyrid-2-yl-1H-indazol-5-yl)urea((S,2S),(R,2R))] | – |
| 100 to 500 | 7790 | O=C(Nc1ccc2[nH]nc(-c3ccncc3)c2c1)N[C@@H](c1ccc(Cl)c(Cl)c1)[C@@H]1CCCCN1 [Ex 16, 1-{(S)-(3,4-Dichlorophenyl)[(2S)-piperid-2-yl]methyl}-3-(3-pyrid-4-yl-1H-indazol-5-yl)urea] | – |
| < 100 | – | CN1CCCCC1C(NC(=O)Nc1ccc2[nH]nc(-c3nc4ccccc4[nH]3)c2c1)c1ccccc1 [Ex 17, 1-[3-(1H-Benzimidazol-2-yl)-1H-indazol-5-yl]-3-[(1-methylpiperid-2-yl)(phenyl)methyl]urea((S,2S),(R,2R))] | IC50 ([3]; Homo sapiens, LNCaP-Clone-FGC): 670 nM; IC50 ([4]; Mus musculus, Fibroblast): 2230 nM |
| < 100 | 930 | CN1CCCCC1C(NC(=O)Nc1ccc2[nH]nc(C#Cc3ccccc3)c2c1)c1ccccc1 [Ex 23, 1-[(1-Methylpiperid-2-yl)(phenyl)methyl]-3-[3-(phenylethynyl)-1H-indazol-5-yl]urea((S,2S),(R,2R))] | IC50 [1]: 500 to 2000 nM |
